Columns and labels:
[1] = human
[2] = human; remark: listed apart in the source
[3] = Presence of at least one case with successful reintroduction. [column 'REINT' in source]; conditions: human
[4] = human; remark: listed apart in the source
[5] = human; remark: listed apart in the source
[6] = human; remark: listed apart in the source
[7] = human, serum
[8] = human; remark: listed apart in the source
[9] = Highest frequency of moderate liver toxicity observed during clinical trials, expressed as a percentage. [column '% BIOL' in source]; conditions: human
[10] = human; remark: listed apart in the source
[11] = Times to onset, minimal and maximal, observed in the indexed observations. [column 'DELAI' in source]; conditions: human
[12] = human; remark: listed apart in the source
[13] = human, serum; remark: listed apart in the source
[14] = human, serum, 4383 h
[15] = human; remark: listed apart in the source
[16] = Highest frequency of acute liver toxicity observed during clinical trials, expressed as a percentage. [column '% AIGUE' in source]; conditions: human
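Throughout, for Hepatotoxicity (association with vascular disease): count of indexed literature references reporting vascular liver injury in humans, e.g. peliosis hepatitis, hepatic veno-occlusive disease or Budd-Chiari syndrome.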
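Throughout, for Hepatotoxicity (benign tumour): value is a count of indexed literature references citing a benign tumour confirmed by histopathology.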
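Throughout, for Hepatotoxicity (choleostasis): human cholestatic liver injury, shown by histopathology or by peak ALT or AST elevation over alkaline phosphatase ratio below 2, value counts indexed literature reports.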
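Throughout, for Hepatotoxicity (chronic liver disease): chronic liver injury confirmed by histopathology or persistently raised serum aminotransferase activity beyond 6 months, value given as the count of indexed literature references.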
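Throughout, for Hepatotoxicity (cirrhosis): value is a count of indexed literature references reporting cirrhosis confirmed by histopathology.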
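Throughout, for Hepatotoxicity (cytolytic): human cytolytic liver injury, shown by histopathology or by a ratio above 5 of peak ALT or AST elevation to alkaline phosphatase elevation, value counts indexed references.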
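Throughout, for Hepatotoxicity (granulomatous hepatitis): value is a count of indexed literature references reporting granulomatous liver disease confirmed by histopathology.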
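Throughout, for Hepatotoxicity (malignant tumour): malignant tumour confirmed by histopathology, value gives the count of indexed literature references reporting it.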
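Throughout, for Hepatotoxicity (severe hepatitis): human clinical data: severe hepatitis, meaning potentially life-threatening liver failure or clinically observed cases, the value counts how many indexed literature references report it.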
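Throughout, for Hepatotoxicity (steatosis): steatosis confirmed by histopathology, value is the count of indexed references.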

Compound	Hepatotoxicity (cirrhosis) [1]	Hepatotoxicity (steatosis) [2]	Hepatotoxicity (successful reintroduction) [3]	Hepatotoxicity (cytolytic) [4]	Hepatotoxicity (choleostasis) [5]	Hepatotoxicity (malignant tumour) [6]	Hepatotoxicity (moderate) [7]	Hepatotoxicity (association with vascular disease) [8]	Hepatotoxicity (moderate) [9] [%]	Hepatotoxicity (severe hepatitis) [10]	Hepatotoxicity (time to onset) [11]	Hepatotoxicity (benign tumour) [12]	Hepatotoxicity (acute) [13]	Hepatotoxicity (chronic liver disease) [14]	Hepatotoxicity (granulomatous hepatitis) [15]	Hepatotoxicity (acute) [16] [%]	other results
C/C=C(/CC)C(=O)NC(N)=O	0	0	yes	0	0	0	0	0	0	0	3 weeks	0	1	0	0	0	–
Nc1nc(N)c2nc(-c3ccccc3)c(N)nc2n1	0	0	yes	1	0	0	1	0	0	1	2 days - 3 weeks	0	1	0	0	0	–
N[C@@H](Cc1ccc(N(CCCl)CCCl)cc1)C(=O)O	0	0	yes	0	1	0	1	2	8	0	6 days - 7 weeks	0	2	0	0	0	–
O=C(O)COC(=O)Cc1ccccc1Nc1c(Cl)cccc1Cl [ACECLOFENAC]	0	0	yes	2	0	0	5	0	3.3	0	1 week - 3 weeks	0	3	0	0	0	–
CCC1(c2ccc(N)cc2)CCC(=O)NC1=O (configuration not stated) [AMINOGLUTETHIMIDE]	0	0	yes	2	3	0	4	0	67	0	1 day - 10 weeks	0	4	0	0	0	–
CCN(CC)CCCN(c1ccccc1)C1Cc2ccccc2C1 [APRINDINE]	0	0	yes	4	7	0	1	0	1	0	5 days - 2 months	0	9	0	1	0.1	–
O=C1C(O)=C([C@H]2CC[C@H](c3ccc(Cl)cc3)CC2)C(=O)c2ccccc21 [ATOVAQUONE]	0	0	yes	2	0	0	9	0	16	0	10 days - 6 weeks	0	2	0	0	5.3	–
CCc1oc2ccccc2c1C(=O)c1cc(Br)c(O)c(Br)c1 [BENZBROMARONE]	0	0	yes	5	0	0	1	0	0	4	1.5 months - 5 months	0	5	0	0	0	–
O=C(CCCN1CCC(O)(c2ccc(Br)cc2)CC1)c1ccc(F)cc1 [BROMPERIDOL]	0	0	yes	0	0	0	0	0	0	0	2 weeks - 6 weeks	0	1	0	0	0	–
Cc1ncsc1CCCl [CLOMETHIAZOLE]	0	0	yes	3	1	0	1	0	0	2	3 days - 40 days	0	3	0	0	0	–
COc1ccc2c3c1O[C@H]1[C@@H](O)C=C[C@H]4[C@@H](C2)N(C)CC[C@@]341 [CODEINE]	0	0	yes	–	–	0	2	0	–	–	< 1 hour - 1.5 hours	0	3	0	–	–	Hepatotoxicity (cytolytic) ([4]; Liver): 2; Hepatotoxicity (choleostasis) ([5]; Liver): 0; Hepatotoxicity (moderate) ([9]; Liver): 0%; Hepatotoxicity (severe hepatitis) ([10]; Liver): 0; Hepatotoxicity (granulomatous hepatitis) ([15]; Liver): 1; Hepatotoxicity (acute) ([16]; Liver): 0%
CC(=O)Oc1ccc(C(=C2CCCCC2)c2ccc(OC(C)=O)cc2)cc1 [CYCLOFENIL]	0	0	yes	3	2	0	8	1	55.6	0	1 month - 5 months	0	5	0	1	1.3	–
COc1c2occc2cc2ccc(=O)oc12 [METHOXSALEN]	0	0	yes	3	0	0	1	0	–	–	2 hours - 5 months	0	–	0	0	–	Hepatotoxicity (moderate) ([9]; Liver): 0%; Hepatotoxicity (severe hepatitis) ([10]; Liver): 1; Hepatotoxicity (acute) ([16]; Liver): 0%
COc1cc(Cc2cnc(N)nc2N)cc(OC)c1OC [TRIMETHOPRIM]	0	0	yes	–	–	0	1	0	–	–	5 days - 24 days	0	–	0	–	–	Hepatotoxicity (cytolytic) ([4]; Liver): 2; Hepatotoxicity (choleostasis) ([5]; Liver): 5; Hepatotoxicity (moderate) ([9]; Liver): 5.9%; Hepatotoxicity (severe hepatitis) ([10]; Liver): 1; Hepatotoxicity (granulomatous hepatitis) ([15]; Liver): 0; Hepatotoxicity (acute) ([16]; Liver): 0%
